Patent publication US20190248834A1, “ENDOMORPHIN-2, TETRAPEPTIDE DERIVATIVES THEREOF, AND USES THEREOF” (priority 2016, published 2019)
No end group written: not given here. *: point of attachment. NHNH2 = NN*

Key:
[1] = test system: arthritic pain of wrists and fingers (psoriasis); experiment: Example 61: comparative analgesic efficacy in psoriatic arthritis of wrists and fingers, topical; assay type: in vivo, human; conditions: 1% (w/v) in WEP442, topical
From the text: A subject with severe generalized psoriasis compared the topical efficacy of solution compositions of nine (9) tetrapeptide derivatives on arthritic pain of their wrists and fingers. All of the solution compositions contained 1% (w/v) of tetrapeptide derivative in WEP442.

[2] = rats injected with 18 pmol; cited from earlier work
[3] = test system: rat rostral ventrolateral medulla neurons; conditions: in vitro; cited from earlier work
[4] = target: mu receptors (Mus musculus, UniProt P42866); conditions: mouse brain; cited from earlier work
[5] = test system: extruded intervertebral cervical disc, pain and paresthesia; experiment: Example 40: painful extruded intervertebral cervical disc, subcutaneous injection; assay type: in vivo, human
From the text: Previous therapy undergone by the subject included epidural injections of corticosteroids. Within the past several months, the pain had intensified, along with a substantial degree of paresthesia and numbness of the fingers of both hands. […] Relief of pain and paresthesia lasted for 1-2 days. Thereafter, the pain and paresthesia returned.
About 1 week later, pain and paresthesia were negligible, but returned within 2-3 weeks. Such injections were repeated 3 times at approximately monthly intervals with the same beneficial results. However, pain and paresthesia were not cured, and recurring within 2-3 weeks.

[6] = rats injected at 5-10 μg; cited from earlier work
[7] = test system: pain caused by needling or pinching; experiment: Example 91: experimentally induced skin pain, intradermal and subcutaneous injection; assay type: in vivo, human; conditions: 0.1% sterile aqueous solution pH 6.2, intradermally 0.1 ml and subcutaneously 0.2 ml
[8] = test system: sore site on the left lower gum; experiment: Example 38: analgesic effect on gum pain due to pressure from denture; assay type: in vivo, human
Description: […]. […] The dentures were removed and re-inserted 15 hours later. Within about 1 hour, soreness of the same area began to return and application of the above solution composition was repeated in the same way as the day before. All soreness again was alleviated within 5-10 seconds. The relief lasted again for about 7 hours.

[9] = test system: extruded intervertebral cervical disc, pain and paresthesia; experiment: Example 40: painful extruded intervertebral cervical disc, topical; assay type: in vivo, human
From the text: Previous therapy undergone by the subject included epidural injections of corticosteroids.

[10] = test system: adjuvant arthritis; conditions: intraperitoneal injection; cited from earlier work
[11] = test system: thermal burn of finger; experiment: Example 56: analgesic effect on finger pain caused by thermal burn, topical; assay type: in vivo, human; conditions: 1% (w/v) in WEP442, topical
From the text: A subject, suffered a thermal burn of their right fourth finger from touching a hot kitchen plate. […] Six days later, the burned site appeared normal.

[12] = test system: psoriatic arthritis pain, fingers and wrists; experiment: Example 48: comparative analgesic efficacy, psoriatic arthritis pain of fingers and wrists, topical; assay type: in vivo, human; conditions: 1% (w/v) in WEP442, topical
From the text: […] Treatment of the subject over the years included methotrexate and other antimetabolites, and in recent years drugs known as biologic medications. While these agents have provided intervals of relief, none has provided a lasting benefit. Over the past decade, painful arthritis developed in both wrists and in numerous joints of the fingers. Four related tetrapeptide derivatives, 1% (w/v) solution compositions in vehicle WEP442, one at a time, were topically applied to the fingers and wrists of both hands. […] Efficacy was rated by the subject as 4+. • (B) N-Ac-Tyr-Pro-Phe-Phe-NHNH2 (SEQ ID NO: 31) provided slow relief of pain, i.e. within about 10 minutes. […] Analgesic efficacy was judged by the subject to be 0 to 1+.

[13] = test system: hangover headache; experiment: Example 54: analgesic effect on hangover headache, topical; assay type: in vivo, human; conditions: 1% (w/v) in WEP442, topical
From the text: A subject with a “splitting” headache the morning after heavy drinking at a party the night before, topically applied to the entire head and neck a composition containing 1% (w/v) of N-Ac-Tyr-Pro-Phe-Phe-NHNH2 (SEQ ID NO: 31) in WEP442. […] They then drove their car approximately 90 miles to their residence.

[14] = test system: sinus headaches; experiment: Example 55: analgesic effect on headache due to sinusitis, topical; assay type: in vivo, human; conditions: 1% (w/v) in WEP442, topical
From the text: A subject, suffered from chronic recurrent “sinus headaches.” At the time of one such headache, they topically applied to the entire forehead and, with their eyes closed, to the sites overlying the frontal and maxillary sinuses a composition containing 1% (w/v) of N-Ac-Tyr-Pro-Phe-Phe-NHNH2 (SEQ ID NO: 31) in WEP442.

[15] = test system: migraine; experiment: Example 80: analgesic effect on pain and nausea from migraine headache, topical; assay type: in vivo, human; conditions: 0.5% (w/v) in WEP442, topical at onset of symptoms
From the text: A subject with a history of recurrent attacks of migraine, was provided a solution composition containing 0.5% (w/v) of N-Pg-Tyr-Pro-Phe-Phe-NH2 (SEQ ID NO: 44) in WEP442 and a solution composition containing 0.5% (w/v) of N-Ac-Tyr-Pro-Phe-Phe-NHNH2 (SEQ ID NO: 31) in WEP442. […] Sensations of nausea that might have lingered went away after several minutes following a second topical application.

[16] = 0.5% (w/v) in WEP442, gauze under plastic film

Sequence of mu receptors (P42866 whole entry): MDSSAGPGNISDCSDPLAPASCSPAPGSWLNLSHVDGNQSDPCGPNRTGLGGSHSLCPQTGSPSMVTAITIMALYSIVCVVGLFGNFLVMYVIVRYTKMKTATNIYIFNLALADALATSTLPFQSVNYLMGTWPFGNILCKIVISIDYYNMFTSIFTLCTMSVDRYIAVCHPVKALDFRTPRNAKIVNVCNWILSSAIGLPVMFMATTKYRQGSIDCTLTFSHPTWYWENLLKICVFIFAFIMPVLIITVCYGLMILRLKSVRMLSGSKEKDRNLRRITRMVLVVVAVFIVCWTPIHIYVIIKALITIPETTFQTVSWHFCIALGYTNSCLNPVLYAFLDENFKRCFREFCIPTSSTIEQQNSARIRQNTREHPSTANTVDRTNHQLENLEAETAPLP

N-Ac-Tyr-Pro-Phe-Phe-OEt (Ac-YPFF-OEt; SMILES CCOC(=O)[C@H](Cc1ccccc1)NC(=O)[C@H](Cc1ccccc1)NC(=O)[C@@H]1CCCN1C(=O)[C@H](Cc1ccc(O)cc1)NC(C)=O)
efficacy by clinical evaluation [1]: 0

Tyr-Pro-Trp-Phe-NH2 [reference compound]
desensitization of the motor response [2]: did not induce rapid desensitization of the motor response | spontaneous discharge of the medullary neurons [3]: significantly inhibited | affinity for mu receptors [4]: very high affinity

Tyr-Pro-Phe-Phe-NH2 (YPFF-NH2)
pain and paresthesia ([5]; 3 mg/ml sterile aqueous solution, subcutaneous, next day): diminished substantially | time to return of pain and paresthesia ([5]; 3 mg/ml subcutaneous): 2-3 weeks | pain and paresthesia ([5]; 3 mg/ml subcutaneous, repeated after 24 hours, about 1 week later): negligible | analgesic effects [6]: exhibited analgesic effects | spontaneous discharge of the medullary neurons [3]: significantly inhibited | affinity for mu receptors [4]: very high affinity | effect on pain caused by needling or pinching of injected sites [7]: did not prevent pain | duration of relief ([8]; 1% (w/v) in WEP442): about 7 hours | time to relief ([8]; 1% (w/v) in WEP442): 5 to 10 s | relief of soreness ([8]; 1% (w/v) in WEP442, applied to the sore gum area): all soreness was gone | duration of relief of pain and paresthesia [9, 16]: 1 to 2 days | time to relief of symptoms [9, 16]: 8 h | relief of symptoms ([9]; 0.5% (w/v) in WEP442, saturated gauze under plastic film over cervical vertebra 7): complete relief of symptoms | effect on edema in rat paw assay [10]: did not have any effect that significantly differed from the effect of the control group

N-Ac-Tyr-Pro-Phe-Phe-NHNH2 (Ac-YPFF-NHNH2; SMILES CC(=O)N[C@@H](Cc1ccc(O)cc1)C(=O)N1CCC[C@H]1C(=O)N[C@@H](Cc1ccccc1)C(=O)N[C@@H](Cc1ccccc1)C(=O)NN)
blister at burned site [11]: did not developed a blister | pain relief [11]: completely relieved the pain almost instantly | pain relief [12]: Almost complete relief of pain | time to pain relief [12]: ≤ 10 min | pain relief [13]: the headache ceased | time to pain relief [13]: 1 to 2 min | pain relief [14]: headache completely subsided | time to pain relief [14]: ≤ 10 min | pain relief [15]: complete relief of pain
